Source: US4956294A, “Culture of Streptoverticillium synroense for producing an antibacterial” (Merck & Co., Inc., priority 1989, dated 1990)
Values after ≈ are worked out from the molar mass of the structure shown.

Tests used:
[1] = test system: B. distasonis Pen^r, Fox^r, Clind^r 4361; test: Anaerobic agar dilution, Wilkens-Chalgren agar; type: cell-based; details: Parabacteroides distasonis; anaerobic, inoculum 10^6 cfu/spot, 35° C., 48 hours; read-out: MIC
E. coli TEM 2+ 4351 [2] = test: Agar dilution, trypticase soy agar; details: Escherichia coli, 20 h
C. perfringens 2237 = test: microbe, parasite or virus in culture; type: cell-based; details: Clostridium perfringens, 2237, 48 h
K. pneumoniae 4005 = test: Agar dilution, trypticase soy agar; details: Klebsiella pneumoniae, 4005, 20 h
C. perfringens 3513 = test: microbe, parasite or virus in culture; type: cell-based; details: Clostridium perfringens, 3513, 48 h
C. perfringens 3510 = test: microbe, parasite or virus in culture; type: cell-based; details: Clostridium perfringens, 3510, 48 h
Prot. vulgaris 2829 [3] = test: Agar dilution, trypticase soy agar; details: Proteus vulgaris, 2829, 20 h
K. pneumoniae K1+ 4354 = test: Agar dilution, trypticase soy agar; details: Klebsiella pneumoniae, 20 h
[4] = test system: C. difficile Clind^r 4273; test: Anaerobic agar dilution, Wilkens-Chalgren agar; type: cell-based; details: Clostridioides difficile; anaerobic, inoculum 10^6 cfu/spot, 35° C., 48 hours; read-out: MIC
C. perfringens 3512 = test: microbe, parasite or virus in culture; type: cell-based; details: Clostridium perfringens, 3512, 48 h
[5] = test system: B. fragilis Clind^r, Fox^r, Tet^r 4360; test: Anaerobic agar dilution, Wilkens-Chalgren agar; type: cell-based; details: Bacteroides fragilis; anaerobic, inoculum 10^6 cfu/spot, 35° C., 48 hours; read-out: MIC
[6] = test system: Bifidobacterium dentium Fox^r 4427; test: Anaerobic agar dilution, Wilkens-Chalgren agar; type: cell-based; details: 48 h
Prot. morganii Sm^r 2833 = test: Agar dilution, trypticase soy agar; details: Morganella morganii, 20 h
C. perfringens 3508 = test: microbe, parasite or virus in culture; type: cell-based; details: Clostridium perfringens, 3508, 48 h
C. ramosum 4272 = test: Anaerobic agar dilution, Wilkens-Chalgren agar; type: cell-based; details: Thomasclavelia ramosa, 4272; anaerobic, inoculum 10^6 cfu/spot, 35° C., 48 hours; read-out: MIC
Ent. cloacae P99- 2647 [7] = test: Agar dilution, trypticase soy agar; details: Enterobacter cloacae, P992647, 20 h
C. perfringens 3509 = test: microbe, parasite or virus in culture; type: cell-based; details: Clostridium perfringens, 3509, 48 h
E. coli 2891 [8] = test: Agar dilution, trypticase soy agar; details: Escherichia coli, 2891, 20 h
C. difficile Fox^r 4380 = test: Anaerobic agar dilution, Wilkens-Chalgren agar; type: cell-based; details: Clostridioides difficile; anaerobic, inoculum 10^6 cfu/spot, 35° C., 48 hours; read-out: MIC
[9] = test system: B. thetalotamicron Clind^r 4362; test: Anaerobic agar dilution, Wilkens-Chalgren agar; type: cell-based; details: anaerobic, inoculum 10^6 cfu/spot, 35° C., 48 hours; read-out: MIC
Eubacterium limosum 3344 = test: Anaerobic agar dilution, Wilkens-Chalgren agar; type: cell-based; details: inoculum 10^6 cfu/spot, 35° C., 48 hours
Method: (a) Wilkens-Chalgren agar was used instead of antagonist-free medium (Roche);
(b) The inoculum/spot was about 10^6 instead of about 10^4 ;
(c) The incubation period was for 48 hours, not 24 hours; and
(d) Incubations were performed under anaerobic conditions.

[10] = test system: Propionibacterium acnes 2249; test: Anaerobic agar dilution, Wilkens-Chalgren agar; type: cell-based; details: Cutibacterium acnes, 2249; anaerobic, inoculum 10^6 cfu/spot, 35° C., 48 hours; read-out: MIC
Sal. typhimurium 3860 [11] = test: Agar dilution, trypticase soy agar; details: Salmonella enterica, 20 h
E. coli TEM 2+ DC2 4352 = test: Agar dilution, trypticase soy agar; details: Escherichia coli, 20 h
Ent. cloacae P99+ 2646 = test: Agar dilution, trypticase soy agar; details: Enterobacter cloacae, 20 h
[12] = test system: Prot. mirabilis Gm^r 2830; test: Agar dilution, trypticase soy agar; details: Proteus mirabilis, 20 h
[13] = test system: B. distasonis Pen^r, Fox^r 3445; test: Anaerobic agar dilution, Wilkens-Chalgren agar; type: cell-based; details: Parabacteroides distasonis, 48 h
[14] = test system: Veillonella alcalescens 1952; test: Anaerobic agar dilution, Wilkens-Chalgren agar; type: cell-based; details: Veillonella parvula, 1952; anaerobic, inoculum 10^6 cfu/spot, 35° C., 48 hours; read-out: MIC
[15] = test system: Bacteroides fragilis Met^r . Pen^r 4324; test: Anaerobic agar dilution, Wilkens-Chalgren agar; type: cell-based; details: anaerobic, inoculum 10^6 cfu/spot, 35° C., 48 hours, read-out: MIC
[16] = test system: Actinomyces naeslundii 4053; test: Anaerobic agar dilution, Wilkens-Chalgren agar; type: cell-based; details: Actinomyces naeslundii, 4053; anaerobic, inoculum 10^6 cfu/spot, 35° C., 48 hours; read-out: MIC
[17] = test system: B. fragilis NCCLS control strain 4419; test: Anaerobic agar dilution, Wilkens-Chalgren agar; type: cell-based; details: Bacteroides fragilis; anaerobic, inoculum 10^6 cfu/spot, 35° C., 48 hours; read-out: MIC
B. ovatus Pen^r 3248 = test: Anaerobic agar dilution, Wilkens-Chalgren agar; type: cell-based; details: Bacteroides ovatus; anaerobic, inoculum 10^6 cfu/spot, 35° C., 48 hours; read-out: MIC
[18] = test system: Ps. aeruginosa RPL11+ 3350; test: Agar dilution, trypticase soy agar; details: Pseudomonas aeruginosa, 20 h
[19] = test system: Fusobacterium mortiferum Fox^r 3345; test: Anaerobic agar dilution, Wilkens-Chalgren agar; type: cell-based; details: anaerobic, inoculum 10^6 cfu/spot, 35° C., 48 hours, read-out: MIC
C. perfringens 3511 = test: microbe, parasite or virus in culture; type: cell-based; details: Clostridium perfringens, 3511, 48 h
[20] = test system: B. thetalotamicron Clind^r, NCCLS control strain 4420; test: Anaerobic agar dilution, Wilkens-Chalgren agar; type: cell-based; details: anaerobic, inoculum 10^6 cfu/spot, 35° C., 48 hours; read-out: MIC
[21] = test system: S. aureus Gm^r Meth^r 4310; test: Agar dilution, trypticase soy agar; details: Staphylococcus aureus, 20 h
Ser. marcescens 2840 [22] = test: Agar dilution, trypticase soy agar; details: Serratia marcescens, 2840, 20 h
B. fragilis Pen^r 3214 = test: Anaerobic agar dilution, Wilkens-Chalgren agar; type: cell-based; details: Bacteroides fragilis; anaerobic, inoculum 10^6 cfu/spot, 35° C., 48 hours; read-out: MIC
[23] = test system: Clostridium perfringens NCCLS control strain 4418; test: microbe, parasite or virus in culture; type: cell-based; details: 48 h
[24] = test system: Peptostreptococcus anaerobius 3282; test: Anaerobic agar dilution, Wilkens-Chalgren agar; type: cell-based; details: Peptostreptococcus anaerobius, 3282; anaerobic, inoculum 10^6 cfu/spot, 35° C., 48 hours; read-out: MIC
B. asaccharolyticus 4271 = test: Anaerobic agar dilution, Wilkens-Chalgren agar; type: cell-based; details: Porphyromonas asaccharolytica, 4271; anaerobic, inoculum 10^6 cfu/spot, 35° C., 48 hours; read-out: MIC
E. coli TEM 2+ 4351 [25] = test: Agar dilution, antagonist-free medium; details: Escherichia coli, 20 h
Ps. aeruginosa 4279 = test: Agar dilution, antagonist-free medium; details: Pseudomonas aeruginosa, 4279, 20 h
Ent. cloacae P99- 2647 [26] = test: Agar dilution, antagonist-free medium; details: Enterobacter cloacae, P992647, 20 h
E. coli 2891 [27] = test: Agar dilution, antagonist-free medium; details: Escherichia coli, 2891, 20 h
Staph. aureus 2865 = test: Agar dilution, antagonist-free medium; details: Staphylococcus aureus, 2865, 20 h
Prot. vulgaris 2829 [28] = test: Agar dilution, antagonist-free medium; details: Proteus vulgaris, 2829, 20 h
Sal. typhimurium 3860 [29] = test: Agar dilution, antagonist-free medium; details: Salmonella enterica, 20 h
E. coli DC2 4353 = test: Agar dilution, antagonist-free medium; details: Escherichia coli, DC24353, 20 h
Ser. marcescens 2840 [30] = test: Agar dilution, antagonist-free medium; details: Serratia marcescens, 2840, 20 h

CO[C@@]1(NC(=O)Cc2cccs2)C(=O)N2C(C(=O)O)=C(COC(N)=O)CS[C@@H]21 [CEFOXITIN, Cefoxitin, reference compound]
MIC [1]: 32 µg/mL (≈ 74.9 µM) | MIC (E. coli TEM 2+ 4351 [2]): 4 µg/mL (≈ 9.36 µM) | MIC (C. perfringens 2237): 2 µg/mL (≈ 4.68 µM) | MIC (K. pneumoniae 4005): 2 µg/mL (≈ 4.68 µM) | MIC (C. perfringens 3513): 2 µg/mL (≈ 4.68 µM) | MIC (C. perfringens 3510): 0.5 µg/mL (≈ 1.17 µM) | MIC (Prot. vulgaris 2829 [3]): 4 µg/mL (≈ 9.36 µM) | MIC (K. pneumoniae K1+ 4354): 4 µg/mL (≈ 9.36 µM) | MIC [4]: 4 µg/mL (≈ 9.36 µM) | MIC (C. perfringens 3512): 1 µg/mL (≈ 2.34 µM) | MIC [5]: 32 µg/mL (≈ 74.9 µM) | MIC [6]: 64 µg/mL (≈ 150 µM) | MIC (Prot. morganii Sm^r 2833): 8 µg/mL (≈ 18.7 µM) | MIC (C. perfringens 3508): 0.25 µg/mL (≈ 0.585 µM) | MIC (C. ramosum 4272): 32 µg/mL (≈ 74.9 µM) | MIC (Ent. cloacae P99- 2647 [7]): 8 µg/mL (≈ 18.7 µM) | MIC (C. perfringens 3509): 0.25 µg/mL (≈ 0.585 µM) | MIC (E. coli 2891 [8]): 64 µg/mL (≈ 150 µM) | MIC (C. difficile Fox^r 4380): 64 µg/mL (≈ 150 µM) | MIC [9]: 32 µg/mL (≈ 74.9 µM) | MIC (Eubacterium limosum 3344): 1 µg/mL (≈ 2.34 µM) | MIC [10]: 0.06 µg/mL (≈ 0.14 µM) | MIC (Sal. typhimurium 3860 [11]): 4 µg/mL (≈ 9.36 µM) | MIC (E. coli TEM 2+ DC2 4352): 2 µg/mL (≈ 4.68 µM) | MIC (Ent. cloacae P99+ 2646): 128 µg/mL (≈ 299 µM) | MIC [12]: 4 µg/mL (≈ 9.36 µM) | MIC [13]: 128 µg/mL (≈ 299 µM) | MIC [14]: 1 µg/mL (≈ 2.34 µM) | MIC [15]: 4 µg/mL (≈ 9.36 µM) | MIC [16]: 0.015 µg/mL (≈ 0.0351 µM) | MIC [17]: 8 µg/mL (≈ 18.7 µM) | MIC (B. ovatus Pen^r 3248): 32 µg/mL (≈ 74.9 µM) | MIC [18]: > 128 µg/mL | MIC [19]: 32 µg/mL (≈ 74.9 µM) | MIC (C. perfringens 3511): 1 µg/mL (≈ 2.34 µM) | MIC [20]: 32 µg/mL (≈ 74.9 µM) | MIC [21]: > 128 µg/mL | MIC (Ser. marcescens 2840 [22]): 32 µg/mL (≈ 74.9 µM) | MIC (B. fragilis Pen^r 3214): 16 µg/mL (≈ 37.4 µM) | MIC [23]: 1 µg/mL (≈ 2.34 µM) | MIC [24]: 1 µg/mL (≈ 2.34 µM) | MIC (B. asaccharolyticus 4271): 0.5 µg/mL (≈ 1.17 µM)

N[C@@H]1CONC1=O [D-Cycloserine, D-cycloserine, reference compound]
MIC (E. coli TEM 2+ 4351 [25]): 2 µg/mL (≈ 19.6 µM) | MIC (Ps. aeruginosa 4279): 16 µg/mL (≈ 157 µM) | MIC (Ent. cloacae P99- 2647 [26]): 4 µg/mL (≈ 39.2 µM) | MIC (E. coli 2891 [27]): 4 µg/mL (≈ 39.2 µM) | MIC (Staph. aureus 2865): 2 µg/mL (≈ 19.6 µM) | MIC (Prot. vulgaris 2829 [28]): 32 µg/mL (≈ 313 µM) | MIC (Sal. typhimurium 3860 [29]): 4 µg/mL (≈ 39.2 µM) | MIC (E. coli DC2 4353): 8 µg/mL (≈ 78.4 µM) | MIC (Ser. marcescens 2840 [30]): > 256 µg/mL
